Experiment [1] in a line: Ratio of bioavailability in rat heart and rat blood. Type of experiment: functional, organism-based.
Experiment [2] can be described thus: Ratio of bioavailability in rat blood and rat brain. The experiment is classed as functional, organism-based.
For experiment [3], the system named is V79. The experiment is described as follows: Net accumulation of the [99mTc]Isonitrile complex was measured in 77A cell lines in the presence of Verapamil. The experiment is classed as functional, cell-based. To be noted: Cricetulus griseus.
Experiment [4] relates to V79. The experiment is described as follows: Verapamil index represents the ratio of net uptake in the presense of verapamil over control in 77A cell lines. Type of experiment: functional, cell-based. As to conditions: Cricetulus griseus.
Experiment [5] deals with V79. The experiment is described as follows: Net accumulation of the [99mTc]Isonitrile complex was measured in V79 cell lines in the presence of Verapamil. The experiment is classed as functional, cell-based. As to conditions: Cricetulus griseus.
Experiment [6] deals with V79. In words: Verapamil index represents the ratio of net uptake in the presense of verapamil over control in V79 cell lines. The experiment is classed as functional, cell-based. To be noted: Cricetulus griseus.
The nature of experiment [7]: Ratio of bioavailability in rat adrenal and rat blood. The experiment is classed as functional, organism-based.

“Hexakis-(2-methoxyisobutylisonitrile)Technetium (99mTc-MIBI)”: the Ratio in experiment [1] was found to be 120; in experiment [2], 0.7; in experiment [7], 158. Besides, the Net accumulation in the experiment with V79 [3] was 102; in the experiment on V79 [5] it was 70.4. For the same substance, the Verapamil index with V79 [4] amounted to 32.9; in the experiment with V79 [6] it was 3.91.
For the substance “Hexakis[5-Methoxy-2-methyl-4-nitrobenzeneisonitrile]technetium Complex”, the Ratio was found to be 0.4 in experiment [1], 28 in experiment [2] and 1.8 in experiment [7]. In the experiment with V79 [5], the Net accumulation stood at 31.7. In addition, the Verapamil index in the experiment with V79 [6] worked out at 0.87.

The values above are taken from ChEMBL document CHEMBL1128489, “Novel hexakis(areneisonitrile)technetium(I) complexes as radioligands targeted to the multidrug resistance P-glycoprotein” (J Med Chem, 1995).
